{"source": "patent US20210106567A1", "about": "“COMPOSITIONS AND METHODS FOR INHIBITING CARP-1 BINDING TO NEMO” (United States Government As Represented By The Department …, priority 2019, published 2021)", "key": {"[1]": {"tested_on": "RENCA renal cancer tumors", "settings": "mouse, in vivo", "method": "The subcutaneous tumor bearing mice were treated with indicated agents. […] The end-points for assessing anti-tumor activity involved qualitative determination via tumor growth inhibition (% T/C) where T is the median tumor volume of the treated mice and C is the median tumor volume of the Control mice on any given day of measurement."}, "MDA-MB-231 TNBC cells": {"tested_on": "MDA-MB-231 TNBC cells", "assay": "MTT cell viability", "assay_type": "cell-based, human", "settings": "Homo sapiens, MDA-MB-231, 72 h", "method": "(§1) The murine TNBC cell line 4T1 that was derived from a spontaneously arising BALB/c mammary tumor were obtained from the Karmanos Cancer Institute (KCl), and were maintained in culture (Cheriyan et al. (2016) Oncotarget 7, 73370-73388). […] The cell culture media were also supplemented with 10% FBS, 100 units/ml of penicillin, and 100 μg/ml of streptomycin, and the cells were maintained at 37° C. and 5% CO2. For cell growth and MTT studies, the cells were cultured in fresh media with 5%-10% FBS prior to their treatments with various agents.\n(§2) Cell Viability, Immunoprecipitation and Western Blot assays: 500-1000 cells were seeded in each well of 96 well plate and then either untreated (control) or treated with various agents for noted times. After treatment, MTT reagent was added at 0.5 mg/ml concentration for 2-4 hours at 37° C. DMSO was added to solubilize formazan and the plate was read at 570 nm in a plate reader. The histograms indicating levels of cell viability were generated by plotting the net absorbances (Rishi et al. (2003) J Biol Chem 278, 33422-33435; and Rishi et al. (2006) J Biol Chem 281, 13188-13198)."}, "MTT cell viability": {"assay": "MTT cell viability", "assay_type": "cell-based, human", "settings": "human, MDA-MB-231 TNBC cells; 1.0, 2.5, 5.0, or 10.0 μM over 24 h; read-out: loss of viability", "method": "as §1, §2"}}}
{"smiles": "Cc1ccc(-n2nnnc2SCC(=O)c2ccc(O)c(O)c2)cc1", "note": "[SNI-1, 1-(3,4-dihydroxyphenyl)-2-{(1-(4-methylphenyl)-1H-tetrazol-5-yl)thio}ethanone]", "values": [{"measurement": "weight loss in animals", "setting": "[1]", "value": "0.4-4.0%"}, {"measurement": "IC50", "setting": "MDA-MB-231 TNBC cells", "value": "4 to 4.5", "unit": "µM"}, {"measurement": "cytotoxicity at 24 h", "setting": "MTT cell viability", "value": "10 to 20", "unit": "%"}]}
